{
  "source": "paper PMC11742723",
  "about": "“The clinical-stage drug BTZ-043 accumulates in murine tuberculosis lesions and efficiently acts against Mycobacterium tuberculosis” (Nature Communications, 2025)",
  "assay": "MALDI imaging and penetration analysis in centrally necrotizing granulomas",
  "conditions": "for BTZ-043 distribution in granulomas by MALDI imaging: IL-13tg mice",
  "data": [
    {"smiles": "C[C@H]1COC2(CCN(c3nc(=O)c4cc(C(F)(F)F)cc([N+](=O)[O-])c4s3)CC2)O1", "note": "[BTZ-043]", "values": [
      {"measurement": "BTZ-043 distribution in granulomas by MALDI imaging", "setting": "0.5 h and 2 h after the last administration", "value": "higher intensity in the layer of foamy macrophages than in the surrounding tissue and a low intensity in the necrotic center"},
      {"measurement": "BTZ-043 distribution in granulomas by MALDI imaging", "setting": "4 h after the last administration", "value": "evenly distributed across the granuloma, including a full penetration of the necrotic center"},
      {"measurement": "BTZ-043 distribution in granulomas by MALDI imaging", "setting": "8 h post-dose", "value": "still detected in the cellular compartment and the necrotic center of the lesion"},
      {"measurement": "BTZ-043 distribution in lung section by MALDI imaging", "setting": "IL-13tg mouse, 2 h post-dose, 10 µm pixel size", "value": "higher abundance in the granuloma areas"},
      {"measurement": "Mean intensity", "setting": "Left Granuloma, Distance 5 μm", "value": 139.49},
      {"measurement": "Mean intensity", "setting": "Left Granuloma, Distance 15 μm", "value": 156.7},
      {"measurement": "Mean intensity", "setting": "Left Granuloma, Distance 25 μm", "value": 198.34},
      {"measurement": "Mean intensity", "setting": "Left Granuloma, Distance 455 μm", "value": 231.69},
      {"measurement": "Mean intensity", "setting": "Left Granuloma, Distance 465 μm", "value": 177.77},
      {"measurement": "Mean intensity", "setting": "Left Granuloma, Distance 475 μm", "value": 149.66},
      {"measurement": "Mean intensity", "setting": "Left Granuloma, Distance 485 μm", "value": 141.47},
      {"measurement": "Mean intensity", "setting": "Left Granuloma, Distance 495 μm", "value": 108.37},
      {"measurement": "Mean intensity", "setting": "Left Granuloma, Distance -5 μm", "value": 119.73},
      {"measurement": "Mean intensity", "setting": "Left Granuloma, Distance -15 μm", "value": 101.17},
      {"measurement": "Mean intensity", "setting": "Left Granuloma, Distance -25 μm", "value": 94.994},
      {"measurement": "Mean intensity", "setting": "Left Granuloma, Distance -35 μm", "value": 92.517},
      {"measurement": "Mean intensity", "setting": "Left Granuloma, Distance -45 μm", "value": 79.172},
      {"measurement": "Mean intensity", "setting": "Left Granuloma, Distance -55 μm", "value": 80.027},
      {"measurement": "Mean intensity", "setting": "Left Granuloma, Distance -65 μm", "value": 75.696},
      {"measurement": "Mean intensity", "setting": "Left Granuloma, Distance -75 μm", "value": 68.605},
      {"measurement": "Mean intensity", "setting": "Left Granuloma, Distance -85 μm", "value": 57.747},
      {"measurement": "Mean intensity", "setting": "Left Granuloma, Distance -95 μm", "value": 55.134},
      {"measurement": "Mean intensity", "setting": "Left Granuloma, Distance -105 μm", "value": 53.791},
      {"measurement": "Mean intensity", "setting": "Left Granuloma, Distance -115 μm", "value": 50.259},
      {"measurement": "Mean intensity", "setting": "Left Granuloma, Distance -125 μm", "value": 46.467},
      {"measurement": "Mean intensity", "setting": "Left Granuloma, Distance -135 μm", "value": 47.503},
      {"measurement": "Mean intensity", "setting": "Left Granuloma, Distance -145 μm", "value": 45.623},
      {"measurement": "Mean intensity", "setting": "Left Granuloma, Distance -155 μm", "value": 45.907},
      {"measurement": "Mean intensity", "setting": "Left Granuloma, Distance -165 μm", "value": 44.835},
      {"measurement": "Mean intensity", "setting": "Left Granuloma, Distance -175 μm", "value": 48.409},
      {"measurement": "Mean intensity", "setting": "Left Granuloma, Distance -185 μm", "value": 51.437},
      {"measurement": "Mean intensity", "setting": "Left Granuloma, Distance -195 μm", "value": 54.977},
      {"measurement": "Mean intensity", "setting": "Left Granuloma, Distance -205 μm", "value": 58.044},
      {"measurement": "Mean intensity", "setting": "Left Granuloma, Distance -215 μm", "value": 59.813},
      {"measurement": "Mean intensity", "setting": "Left Granuloma, Distance -225 μm", "value": 62.899},
      {"measurement": "Mean intensity", "setting": "Left Granuloma, Distance -235 μm", "value": 60.823},
      {"measurement": "Mean intensity", "setting": "Left Granuloma, Distance -245 μm", "value": 67.44},
      {"measurement": "Mean intensity", "setting": "Left Granuloma, Distance -255 μm", "value": 69.7},
      {"measurement": "Mean intensity", "setting": "Left Granuloma, Distance -265 μm", "value": 69.289},
      {"measurement": "Mean intensity", "setting": "Left Granuloma, Distance -275 μm", "value": 70.893},
      {"measurement": "Mean intensity", "setting": "Left Granuloma, Distance -285 μm", "value": 72.505},
      {"measurement": "Mean intensity", "setting": "Left Granuloma, Distance -295 μm", "value": 79.349},
      {"measurement": "Mean intensity", "setting": "Left Granuloma, Distance -305 μm", "value": 78.856},
      {"measurement": "Mean intensity", "setting": "Left Granuloma, Distance -315 μm", "value": 77.402},
      {"measurement": "Mean intensity", "setting": "Left Granuloma, Distance -325 μm", "value": 81.899},
      {"measurement": "Mean intensity", "setting": "Left Granuloma, Distance -335 μm", "value": 87.061},
      {"measurement": "Mean intensity", "setting": "Left Granuloma, Distance -345 μm", "value": 86.34},
      {"measurement": "Mean intensity", "setting": "Left Granuloma, Distance -355 μm", "value": 78.295},
      {"measurement": "Mean intensity", "setting": "Left Granuloma, Distance -365 μm", "value": 77.954},
      {"measurement": "Mean intensity", "setting": "Left Granuloma, Distance -375 μm", "value": 75.379},
      {"measurement": "Mean intensity", "setting": "Left Granuloma, Distance -385 μm", "value": 74.434},
      {"measurement": "Mean intensity", "setting": "Left Granuloma, Distance -395 μm", "value": 71.834},
      {"measurement": "Mean intensity", "setting": "Left Granuloma, Distance -405 μm", "value": 68.248},
      {"measurement": "Mean intensity", "setting": "Left Granuloma, Distance -415 μm", "value": 72.627},
      {"measurement": "Mean intensity", "setting": "Left Granuloma, Distance -425 μm", "value": 59.053},
      {"measurement": "Mean intensity", "setting": "Left Granuloma, Distance -435 μm", "value": 63.125},
      {"measurement": "Mean intensity", "setting": "Left Granuloma, Distance -445 μm", "value": 62.385},
      {"measurement": "Mean intensity", "setting": "Right Granuloma, Distance 5 μm", "value": 197.71},
      {"measurement": "Mean intensity", "setting": "Right Granuloma, Distance 15 μm", "value": 215.58},
      {"measurement": "Mean intensity", "setting": "Right Granuloma, Distance -5 μm", "value": 125.01},
      {"measurement": "Mean intensity", "setting": "Right Granuloma, Distance -15 μm", "value": 127.96},
      {"measurement": "Mean intensity", "setting": "Right Granuloma, Distance -25 μm", "value": 106.25},
      {"measurement": "Mean intensity", "setting": "Right Granuloma, Distance -35 μm", "value": 89.663},
      {"measurement": "Mean intensity", "setting": "Right Granuloma, Distance -45 μm", "value": 81.533},
      {"measurement": "Mean intensity", "setting": "Right Granuloma, Distance -55 μm", "value": 68.214},
      {"measurement": "Mean intensity", "setting": "Right Granuloma, Distance -65 μm", "value": 66.172},
      {"measurement": "Mean intensity", "setting": "Right Granuloma, Distance -75 μm", "value": 61.043},
      {"measurement": "Mean intensity", "setting": "Right Granuloma, Distance -85 μm", "value": 54.281},
      {"measurement": "Mean intensity", "setting": "Right Granuloma, Distance -95 μm", "value": 56.521},
      {"measurement": "Mean intensity", "setting": "Right Granuloma, Distance -105 μm", "value": 53.591},
      {"measurement": "Mean intensity", "setting": "Right Granuloma, Distance -115 μm", "value": 52.38},
      {"measurement": "Mean intensity", "setting": "Right Granuloma, Distance -125 μm", "value": 54.234},
      {"measurement": "Mean intensity", "setting": "Right Granuloma, Distance -135 μm", "value": 48.899},
      {"measurement": "Mean intensity", "setting": "Right Granuloma, Distance -145 μm", "value": 60.041},
      {"measurement": "Mean intensity", "setting": "Right Granuloma, Distance -155 μm", "value": 59.51},
      {"measurement": "Mean intensity", "setting": "Right Granuloma, Distance -165 μm", "value": 58.931},
      {"measurement": "Mean intensity", "setting": "Right Granuloma, Distance -175 μm", "value": 63.443},
      {"measurement": "Mean intensity", "setting": "Right Granuloma, Distance -185 μm", "value": 66.482},
      {"measurement": "Mean intensity", "setting": "Right Granuloma, Distance -195 μm", "value": 69.634},
      {"measurement": "Mean intensity", "setting": "Right Granuloma, Distance -205 μm", "value": 66.172},
      {"measurement": "Mean intensity", "setting": "Right Granuloma, Distance -215 μm", "value": 74.546},
      {"measurement": "Mean intensity", "setting": "Right Granuloma, Distance -225 μm", "value": 72.092},
      {"measurement": "Mean intensity", "setting": "Right Granuloma, Distance -235 μm", "value": 66.755},
      {"measurement": "Mean intensity", "setting": "Right Granuloma, Distance -245 μm", "value": 74.961},
      {"measurement": "Mean intensity", "setting": "Right Granuloma, Distance -255 μm", "value": 64.422},
      {"measurement": "Mean intensity", "setting": "Right Granuloma, Distance -265 μm", "value": 67.123},
      {"measurement": "Mean intensity", "setting": "Right Granuloma, Distance -275 μm", "value": 62.093},
      {"measurement": "Mean intensity", "setting": "Right Granuloma, Distance -285 μm", "value": 63.383},
      {"measurement": "Mean intensity", "setting": "Right Granuloma, Distance -295 μm", "value": 60.578},
      {"measurement": "Mean intensity", "setting": "Right Granuloma, Distance -305 μm", "value": 57.529},
      {"measurement": "Mean intensity", "setting": "Right Granuloma, Distance -315 μm", "value": 54.535},
      {"measurement": "Mean intensity", "setting": "Right Granuloma, Distance -325 μm", "value": 51.043},
      {"measurement": "Mean intensity", "setting": "Right Granuloma, Distance -335 μm", "value": 51.438},
      {"measurement": "Mean intensity", "setting": "Right Granuloma, Distance -345 μm", "value": 52.76},
      {"measurement": "Mean intensity", "setting": "Right Granuloma, Distance -355 μm", "value": 52.538},
      {"measurement": "Mean intensity", "setting": "Right Granuloma, Distance -365 μm", "value": 48.918},
      {"measurement": "Mean intensity", "setting": "Right Granuloma, Distance -375 μm", "value": 51.113},
      {"measurement": "Mean intensity", "setting": "Right Granuloma, Distance -385 μm", "value": 46.016},
      {"measurement": "Mean intensity", "setting": "Right Granuloma, Distance -395 μm", "value": 55.943},
      {"measurement": "Mean intensity", "setting": "Right Granuloma, Distance -405 μm", "value": 55.946},
      {"measurement": "Mean intensity", "setting": "Right Granuloma, Distance -415 μm", "value": 56.244},
      {"measurement": "Mean intensity", "setting": "Right Granuloma, Distance -425 μm", "value": 54.068},
      {"measurement": "Mean intensity", "setting": "Right Granuloma, Distance -435 μm", "value": 59.943},
      {"measurement": "Mean intensity", "setting": "Right Granuloma, Distance -445 μm", "value": 57.116}
    ]}
  ]
}
